Assay results published in paper PMC10525797, “Streptomyces rugosispiralis sp. nov., a Novel Actinobacterium Isolated from Peat Swamp Forest Soil That Produces Ansamycin Derivatives and Nocardamines” (Antibiotics, 2023).
Converted amounts (≈) assume the structure as drawn.

Assays:
[1] = test system: Bacillus cereus; experiment: Antibacterial resazurin microplate assay (REMA), anti-B. cereus; format: cell-based; settings: inactive = at the final concentration of 50 μg/mL
[2] = test system: SK-Mel-5; design: method as in PMID 21376551; settings: cited from earlier work
[3] = test system: V. alginolyticus; design: method as in PMID 21376551; settings: cited from earlier work
[4] = test system: tested microorganisms used in this study; experiment: Antimicrobial activity test, tested microorganisms of this study; format: cell-based; settings: at a concentration of 50 μg/mL
[5] = in vitro; settings: African green monkey
[6] = test system: E. faecium; design: method as in PMID 21376551; settings: cited from earlier work
[7] = test system: PRMI-7951; design: method as in PMID 21376551; settings: cited from earlier work
[8] = test system: Plasmodium falciparum (K-1, multi-drug resistant strain); experiment: microbe, parasite or virus in culture; format: cell-based; settings: for Anti-P. falciparum IC50: K-1 multi-drug resistant strain, inactive = at the final concentration of 50 μg/mL; for IC50: Plasmodium falciparum, read-out: Anti-P. falciparum IC50
[9] = test system: NCI-H187 (human small-cell lung cancer, ATCC CRL-5804); settings: NCI-H187 cells; inactive = at the final concentration of 50 μg/mL
[10] = test system: MCF-7 (human breast cancer, ATCC HTC-22); settings: MCF-7 cells; inactive = at the final concentration of 50 μg/mL
[11] = test system: Mycobacterium tuberculosis strain H37Ra; experiment: microbe, parasite or virus in culture; format: cell-based; settings: for MIC: Mycobacterium tuberculosis, H37RA, read-out: Anti-M. tuberculosis MIC
[12] = test system: C. albicans; design: method as in PMID 21376551; settings: cited from earlier work
[13] = test system: B. subtilis; design: method as in PMID 21376551; settings: cited from earlier work
[14] = test system: SK-Mel-28; design: method as in PMID 21376551; settings: cited from earlier work
[15] = design: method as in PMID 15844966; settings: final concentration of up to 200 μg/mL; cited from earlier work
[16] = test system: KB (oral human epidermoid carcinoma, ATCC CCL-17); settings: KB cells; inactive = at the final concentration of 50 μg/mL
[17] = test system: T-47D; design: method as in PMID 21376551; settings: cited from earlier work
[18] = in vitro; settings: human
[19] = target: Hsp90 ATPase; design: method as in PMID 23124337; settings: isolated from Streptomyces hygroscopicus JCM4427; read-out: Hsp90 ATPase inhibition IC50; cited from earlier work
[20] = test system: Vero cells (African green monkey kidney fibroblasts, ATCC CCL-81); settings: inactive = at the final concentration of 50 μg/mL
[21] = test system: Syphacia oblevata; design: method as in PMID 5459626; settings: cited from earlier work
[22] = test system: HPV-18-positive HeLa cells; design: method as in PMID 28862674; settings: cervical cancer cell line; cited from earlier work
[23] = test system: Plasmodium berghei; design: method as in PMID 5459626; settings: cited from earlier work
[24] = test system: Setosphaeria turcica; design: method as in PMID 28862674; settings: plant pathogen; cited from earlier work
[25] = in vitro; settings: human; remark: listed apart in the source
[26] = test system: human histiocytic lymphoma U-937 cell line; design: method as in PMID 11213294; settings: cited from earlier work
[27] = test system: oncostatin M signaling; settings: cell-based; cited from earlier work

SMILES: O=C1CCC(=O)N(O)CCCCCNC(=O)CCC(=O)N(O)CCCCCNC(=O)CCC(=O)N(O)CCCCCN1 [(5), nocardamine]
- Anti-B. cereus MIC [1]: inactive
- cell proliferation of SK-Mel-5 [2]: did not inhibit cell proliferation
- colony formation of SK-Mel-5 [2]: did inhibit their colony formation
- antimicrobial activity against V. alginolyticus [3]: no activity
- antimicrobial activity against tested microorganisms [4]: inactive
- IC50 [5]: 16.6 µg/mL (≈ 27.6 µM)
- antimicrobial activity against E. faecium [6]: weak antimicrobial activity
- cell proliferation of PRMI-7951 [7]: did not inhibit cell proliferation
- colony formation of PRMI-7951 [7]: did inhibit their colony formation
- Anti-P. falciparum IC50 [8]: inactive
- Cytotoxicity IC50 NCI-H187 [9]: inactive
- Cytotoxicity IC50 MCF-7 [10]: inactive
- Anti-M. tuberculosis MIC [11]: inactive
- antimicrobial activity against C. albicans [12]: no activity
- antimicrobial activity against B. subtilis [13]: weak antimicrobial activity
- cell proliferation of SK-Mel-28 [14]: did not inhibit cell proliferation
- colony formation of SK-Mel-28 [14]: did inhibit their colony formation
- antimicrobial activity [15]: no antimicrobial activity
- Cytotoxicity IC50 KB [16]: inactive
- cell proliferation of T-47D [17]: did not inhibit cell proliferation
- colony formation of T-47D [17]: did inhibit their colony formation

SMILES: OC(c1cc(C(F)(F)F)nc2c(C(F)(F)F)cccc12)C1CCCCN1 (stereo not drawn) [Mefloquine, reference compound]
- IC50 [8]: 0.024 µg/mL (≈ 0.0634 µM)

SMILES: CO[C@H]1/C=C\C=C(/C)C(=O)NC2=CC(=O)C(O)=C(C[C@@H](C)C[C@H](OC)[C@H](O)[C@@H](C)/C=C(\C)[C@@H]1OC(N)=O)C2=O [(2), 17-O-demethylgeldanamycin]
- Anti-B. cereus MIC [1]: inactive
- IC50 [5]: 6.43 µg/mL (≈ 11.8 µM)
- Anti-P. falciparum IC50 [8]: inactive
- Cytotoxicity IC50 MCF-7 [10]: inactive
- Anti-M. tuberculosis MIC [11]: inactive
- IC50 [18]: 4.25 µg/mL (≈ 7.78 µM)
- Cytotoxicity IC50 KB [16]: inactive

SMILES: CO[C@H]1C[C@H](C)Cc2cc(O)cc(c2)NC(=O)/C(C)=C/CC[C@H](OC)[C@@H](OC(N)=O)/C(C)=C/[C@H](C)[C@H]1O [(4), 17-demethoxyreblastatin]
- Anti-B. cereus MIC [1]: inactive
- IC50 [5]: 13.5 µg/mL (≈ 26 µM)
- IC50 [19]: 1820 nM
- Anti-P. falciparum IC50 [8]: inactive
- Cytotoxicity IC50 MCF-7 [10]: inactive
- Anti-M. tuberculosis MIC [11]: inactive
- IC50 [18]: 1.33 µg/mL (≈ 2.56 µM)
- Cytotoxicity IC50 KB [16]: inactive

SMILES: C[C@H]1[C@@H](O)O[C@@H]2O[C@@]3(C)CC[C@H]4[C@H](C)CC[C@@H]1[C@@]24OO3 [Dihydroartemisinine, reference compound]
- IC50 [8]: 0.000702 µg/mL (≈ 0.00247 µM)

SMILES: NNC(=O)c1ccncc1 [Isoniazid, reference compound]
- MIC [11]: 0.047 µg/mL (≈ 0.343 µM)

SMILES: O=C1CCC(=O)NCCCCCN(O)C(=O)CCC(=O)NCCCCCN(O)C(=O)CCC(=O)NCCCCCN1 [(6), dehydroxynocardamine]
- Anti-B. cereus MIC [1]: inactive
- Cytotoxicity IC50 Vero [20]: inactive
- antimicrobial activity against tested microorganisms [4]: inactive
- Anti-P. falciparum IC50 [8]: inactive
- Cytotoxicity IC50 MCF-7 [10]: inactive
- Anti-M. tuberculosis MIC [11]: inactive
- IC50 [18]: 14 µg/mL (≈ 23.9 µM)
- antimicrobial activity [15]: no antimicrobial activity
- Cytotoxicity IC50 KB [16]: inactive

SMILES: CO[C@H]1/C=C/O[C@@]2(C)Oc3c(C)c(O)c4c(O)c(c(/C=N/N5CCN(C)CC5)c(O)c4c3C2=O)NC(=O)/C(C)=C\C=C\[C@H](C)[C@H](O)[C@@H](C)[C@@H](O)[C@@H](C)[C@H](OC(C)=O)[C@@H]1C [Rifampicin, reference compound]
- MIC [11]: 0.013 µg/mL (≈ 0.0158 µM)

SMILES: CC[C@@H](CO)NCCN[C@@H](CC)CO [Ethambutol, reference compound]
- MIC [11]: 0.938 µg/mL (≈ 4.59 µM)

SMILES: CC1COc2c(N3CCN(C)CC3)c(F)cc3c(=O)c(C(=O)O)cn1c23 (stereo not drawn) [Ofloxacin, reference compound]
- MIC [11]: 0.391 µg/mL (≈ 1.08 µM)

SMILES: CN[C@H](CC(C)C)C(=O)N[C@H]1C(=O)N[C@@H](CC(N)=O)C(=O)N[C@H]2C(=O)N[C@H]3C(=O)N[C@H](C(=O)N[C@H](C(=O)O)c4cc(O)cc(O)c4-c4cc3ccc4O)[C@H](O)c3ccc(c(Cl)c3)Oc3cc2cc(c3O[C@@H]2O[C@H](CO)[C@@H](O)[C@H](O)[C@H]2O[C@H]2C[C@](C)(N)[C@H](O)[C@H](C)O2)Oc2ccc(cc2Cl)[C@H]1O [Vancomycin, reference compound]
- MIC ([1]; Bacillus cereus): 2 µg/mL (≈ 1.38 µM)

SMILES: COC1=C2C[C@@H](C)C[C@H](OC)[C@H](O)[C@@H](C)/C=C(\C)[C@H](OC(N)=O)[C@@H](OC)/C=C\C=C(/C)C(=O)NC(=CC1=O)C2=O [(1), geldanamycin]
- Anti-B. cereus MIC [1]: inactive
- IC50 [5]: 0.094 µg/mL (≈ 0.168 µM)
- in vivo anti-parasitic activity against Syphacia oblevata [21]: in vivo anti-parasitic activity
- growth of HPV-18-positive HeLa cells [22]: inhibited the growth
- Anti-P. falciparum IC50 [8]: inactive
- in vivo anti-parasitic activity against Plasmodium berghei [23]: not against Plasmodium berghei
- Anti-M. tuberculosis MIC [11]: inactive
- antifungal activity against Setosphaeria turcica [24]: antifungal activity

SMILES: CC/C(=C(\c1ccccc1)c1ccc(OCCN(C)C)cc1)c1ccccc1 [Tamoxifen, reference compound]
- IC50 [25]: 6.96 µg/mL (≈ 18.7 µM)

SMILES: Cc1c2ccncc2c(C)c2c1[nH]c1ccccc12 [Ellipticine, reference compound]
- IC50 [5]: 1.58 µg/mL (≈ 6.41 µM)

SMILES: COc1c(O)cc2cc1C[C@@H](C)C[C@H](OC)[C@H](O)[C@@H](C)/C=C(\C)[C@H](OC(N)=O)[C@@H](OC)CC/C=C(\C)C(=O)N2 [(3), reblastatin]
- Anti-B. cereus MIC [1]: inactive
- IC50 [5]: 7.75 µg/mL (≈ 14.1 µM)
- IC50 [19]: 320 nM
- Anti-P. falciparum IC50 [8]: inactive
- inhibition of proliferation of U-937 IC50 [26]: 0.43 µg/mL
- Anti-M. tuberculosis MIC [11]: inactive
- IC50 [27]: 160 nM
